IC50, inhibition and Activity data for 5 compounds are collected here from ChEMBL document CHEMBL5390293, “Additional Sarasinosides from the Marine Sponge Melophlus sarasinorum Collected from the Bismarck Sea” (J Nat Prod, 2023).

The source made the active and inactive calls. No cut-off for these calls is given here.

In experiment [1] the test system is HepG2. The experiment can be described thus: Cytotoxicity against human HepG2 cells incubated for 48 hrs by absorbance based assay. Type of experiment: functional, cell-based. To be noted: HepG2, 48 h.
Experiment [2] relates to Staphylococcus aureus. The experiment can be described thus: Antimicrobial activity against methicillin sensitive Staphylococcus aureus assessed as bacterial growth inhibition. The format is functional, organism-based.
For experiment [3], the system named is Nakaseomyces glabratus. In words: Antimicrobial activity against Candida glabrata assessed as fungal growth inhibition. The format is functional, organism-based.
In experiment [4] the test system is Escherichia coli. The experiment can be described thus: Antimicrobial activity against Escherichia coli assessed as bacterial growth inhibition. The format is functional, organism-based.
In experiment [5] the test system is Pichia kudriavzevii. The experiment can be described thus: Antimicrobial activity against Pichia kudriavzevii assessed as fungal growth inhibition. Type of experiment: functional, organism-based.
Experiment [6] concerns Candida albicans. The experiment can be described thus: Antimicrobial activity against Candida albicans assessed as fungal growth inhibition. The format is functional, organism-based.
The subject of experiment [7] is MCF7. The experiment can be described thus: Cytotoxicity against human MCF7 cells assessed as cell viability at 20 ug/ml by MTT assay. The format is functional, cell-based. To be noted: dose 20.0 µg/ml.
Experiment [8] deals with Aspergillus fumigatus. The experiment can be described thus: Antimicrobial activity against Aspergillus fumigatus assessed as fungal growth inhibition. Type of experiment: functional, organism-based.
Experiment [9] relates to Candida parapsilosis. The experiment can be described thus: Antimicrobial activity against Candida parapsilosis assessed as fungal growth inhibition. The format is functional, organism-based.
Experiment [10] relates to MIA PaCa-2. The experiment can be described thus: Cytotoxicity against human MIA PaCa-2 cells assessed as cell viability at 20 ug/ml by MTT assay. Type of experiment: functional, cell-based. To be noted: dose 20.0 µg/ml.
Experiment [11] has as its system A549. The experiment can be described thus: Cytotoxicity against human A549 cells assessed as cell viability at 20 ug/ml by MTT assay. Type of experiment: functional, cell-based. To be noted: dose 20.0 µg/ml.
For experiment [12], the system named is Acinetobacter baumannii. The experiment can be described thus: Antimicrobial activity against Acinetobacter baumannii assessed as bacterial growth inhibition. The format is functional, organism-based.
Experiment [13] concerns HepG2. The experiment can be described thus: Cytotoxicity against human HepG2 cells assessed as cell viability at 20 ug/ml by MTT assay. Type of experiment: functional, cell-based. To be noted: dose 20.0 µg/ml.
In experiment [14] the test system is Candida tropicalis. The experiment can be described thus: Antimicrobial activity against Candida tropicalis assessed as fungal growth inhibition. The format is functional, organism-based.
The test system of experiment [15] is A2058. In words: Cytotoxicity against human A2058 cells assessed as cell viability at 20 ug/ml by MTT assay. The format is functional, cell-based. The settings on record: dose 20.0 µg/ml.
Experiment [16] relates to N2a. In words: Cytotoxicity against mouse Neuro2a cells incubated for 24 hrs by absorbance based assay. Type of experiment: functional, cell-based.

The compound `CC(=O)N[C@H]1[C@H](O[C@@H]2CO[C@@H](O[C@H]3CC[C@]4(C)C5=CC[C@@]6(C)C(=C(CC[C@H]4C3(C)C)O5)CC[C@@H]6[C@H](C)CC(=O)C=C(C)C)[C@H](O[C@@H]3O[C@H](CO[C@@H]4OC[C@@H](O)[C@H](O)[C@H]4O[C@@H]4O[C@H](CO)[C@@H](O)[C@H](O)[C@H]4O)[C@@H](O)[C@H](O)[C@H]3NC(C)=O)[C@H]2O)O[C@H](CO)[C@H](O)[C@@H]1O` showed an IC50 in experiment [1] of 5.9 µM.

In the case of `CO[C@H]1C[C@H]([C@H](C)CC(=O)C=C(C)C)[C@@]2(C)CC[C@@]3(O)C(=C12)CC[C@H]1C(C)(C)[C@@H](O[C@@H]2OC[C@@H](O[C@@H]4O[C@H](CO)[C@H](O)[C@H](O)[C@H]4NC(C)=O)[C@H](O)[C@H]2O[C@@H]2O[C@H](CO[C@@H]4OC[C@@H](O)[C@H](O)[C@H]4O)[C@@H](O)[C@H](O)[C@H]2NC(C)=O)CC[C@@]13C`, the inhibition entry in [2], in experiment [3], in experiment [4], in experiment [5], in [6] and in experiment [8] was “inactive” each time. For the same compound, the inhibition result in [9], in [10], in experiment [12] and in experiment [14] was “inactive” each time. The outcome in [7], in experiment [11], in [13] and in experiment [15] was inactive.

With `CO[C@@H]1C[C@H]([C@H](C)CC(=O)C=C(C)C)[C@@]2(C)CC[C@@]3(O)C(=C12)CC[C@H]1C(C)(C)[C@@H](O[C@@H]2OC[C@@H](O[C@@H]4O[C@H](CO)[C@H](O)[C@H](O)[C@H]4NC(C)=O)[C@H](O)[C@H]2O[C@@H]2O[C@H](CO[C@@H]4OC[C@@H](O)[C@H](O)[C@H]4O)[C@@H](O)[C@H](O)[C@H]2NC(C)=O)CC[C@@]13C`, the inhibition entry in [2], in experiment [3], in [4], in experiment [5], in [6] and in experiment [8] was “inactive” each time. Besides, the inhibition entry in [9], in experiment [10], in experiment [12] and in experiment [14] was “inactive” each time. In addition, the outcome in experiment [7], in experiment [11], in experiment [13] and in [15] was inactive.

In experiment [16], `CC(=O)N[C@H]1[C@H](O[C@@H]2CO[C@@H](O[C@H]3CC[C@]4(C)C5=C(CC[C@H]4C3(C)C)C3CC[C@H]([C@H](C)CC(=O)C=C(C)C)[C@@]3(C)CC5)[C@H](O[C@@H]3O[C@H](CO[C@@H]4OC[C@@H](O)[C@H](O)[C@H]4O[C@@H]4O[C@H](CO)[C@H](O)[C@@H](O)[C@H]4O)[C@@H](O)[C@H](O)[C@H]3NC(C)=O)[C@H]2O)O[C@H](CO)[C@H](O)[C@@H]1O` (some centres undefined) returned an IC50 of 5.8 µM.

In the case of `CC(=O)N[C@H]1[C@H](O[C@@H]2CO[C@@H](O[C@H]3CC[C@]4(C)C5=C(CC[C@H]4C3(C)C)[C@@H]3CC[C@H]([C@H](C)CC(=O)C=C(C)C)[C@@]3(C)CC5)[C@H](O[C@@H]3O[C@H](CO[C@@H]4OC[C@@H](O)[C@H](O)[C@H]4O)[C@@H](O)[C@H](O)[C@H]3NC(C)=O)[C@H]2O)O[C@H](CO)[C@H](O)[C@@H]1O`, the inhibition entry in experiment [2], in experiment [3], in [4], in experiment [5], in [6] and in experiment [8] was “inactive” each time. Moreover, the inhibition result in [9], in experiment [10], in experiment [12] and in experiment [14] was “inactive” each time. The result in experiment [7], in [11], in experiment [13] and in [15] was inactive.
